“Also recorded” adds a separate entry of the source.
Tests used:
[1] = tested on: rat formalin paw test (late phase); assay: Rat formalin paw test (late phase): number of flinches and licking time; assay type: in vivo, rat (Rj: Wistar (Han))
Method: Rats were given an intraplantar injection of 5% formalin (50 μl) into the posterior left paw. This treatment induces a recognizable flinching and licking response of the affected paw in control animals. The number of flinches was counted for 15 minutes, beginning 20 minutes after injection of formalin. The time spent licking the affected paw was also recorded.
Male Rj: Wistar (Han) rats, 10 per group, weighing 100-130 g at the beginning of the experiments were studied per group. The test was performed blind.
Lacosamide (20 mg/kg), gabapentin (50 and 100 mg/kg), combinations of lacosamide (20 mg/kg) with gabapentin (50 and 100 mg/kg), and vehicle were administered i.p. 10 minutes before injection of formalin.
Lacosamide (10 and 20 mg/kg), morphine (2 and 4 mg/kg), combinations of lacosamide (10 and 20 mg/kg) with morphine (2 and 4 mg/kg), and vehicle were administered i.p. 10 minutes before injection of formalin.
Lacosamide (10 mg/kg), duloxetine (8 mg/kg), a combination of lacosamide (10 mg/kg) with duloxetine (8 mg/kg), and vehicle were administered i.p. 10 minutes before injection of formalin.
Lacosamide (10 and 20 mg/kg), memantine (4 and 8 mg/kg), combinations of lacosamide (10 and 20 mg/kg) with memantine (4 and 8 mg/kg), and vehicle were administered i.p. 10 minutes before injection of formalin.
Lacosamide (10 and 20 mg/kg), naproxen (8 and 16 mg/kg), combinations of lacosamide (10 and 20 mg/kg) with […] (8 and 16 mg/kg), and vehicle were administered i.p. 10 minutes before injection of formalin. Morphine (8 mg/kg) was included as a comparative treatment.

[2] = tested on: biceps muscle grip strength after TNF-induced muscle pain; assay: Biceps muscle grip strength after TNF-induced muscle pain; assay type: in vivo, rat (Sprague Dawley); conditions: for reversal of TNF-induced reduction of grip strength: 6 h after TNF i.m., 30 to 60 minutes after drug
Method: (§1) Adult male Sprague Dawley rats with a body weight of 250 g to 300 g were used (supplier: Charles River, Sulzfeld, Germany). Animals were group-housed (3 animals per cage) and maintained in a room with controlled temperature (21-22° C.) and a reversed light-dark cycle (12 h/12 h) with food and water available ad libitum. All experiments were approved by the Bavarian State animal experimentation committee and carried out in accordance with its regulations.
(§2) Recombinant rat tumor necrosis factor alpha (herein referred to as TNF) was obtained from R&D Systems, Minneapolis, Minn., U.S.A. TNF was diluted in 0.9% NaCl and used in a concentration of 1 μg in 50 μl. Injections were performed in short halothane narcosis with a 30 g needle bilaterally into the gastrocnemius or into the biceps brachii muscle. All rats were used to the behavioral tests before injections and baseline values were recorded over three test days.
Grip strength of the forelimbs was tested with a digital grip force meter (DFIS series, Chatillon, Greensboro, NC, U.S.A.). The rat was positioned to grab the grid with the forelimbs and was gently pulled so that the grip strength could be recorded. Means of three trials were calculated. The effect of the TNF treatment was calculated for each animal separately and only animals with a significant TNF effect were included for further analysis.
Rats were injected with TNF into the biceps brachii muscle at 8 am. Six hours later, grip strength of the forelimbs was tested with a digital grip force meter. Test drug was administered, and grip strength was again tested after 30 to 60 minutes.
(§3) The rats, initially 10 per group, were treated with either 3, 10 or 30 mg/kg lacosamide, 2 mg/kg metamizol, 30 or 100 mg/kg pregabalin, 100 mg/kg gabapentin, or the NaCl vehicle, i.p. (intraperitoneally). Volume of i.p. injections was 0.5 ml. A pilot study was performed to confirm that i.m. (intramuscular) injection of 1 μg TNF into the gastrocnemius muscle was sufficient to induce pressure hyperalgesia.
(§4) Data are shown in graphs displaying means and standard errors of the means (SEM). Pre- and post-treatment data were compared using ANOVA (analysis of variance) and a Tukey post hoc test. Means of treatment groups were compared using a one-way ANOVA and Dunnett's post hoc test. Maximal possible effects (MPE) were calculated for all types of treatment.

[3] = tested on: muscle pressure hyperalgesia induced by TNF; assay: TNF-induced muscle pressure hyperalgesia (Randall-Selitto, withdrawal threshold to muscle pressure); assay type: in vivo, rat (Sprague Dawley); conditions: for reversal of muscular mechanical hyperalgesia (withdrawal threshold to muscle pressure): 18 h after TNF i.m., 30 to 60 minutes after drug
Method: as §1, §2
Mechanical withdrawal thresholds to muscle pressure were measured with an analgesimeter (Ugo Basile, Comerio, Italy). The rat was allowed to crawl into a sock which helps the rat to relax. The hind limbs were positioned such that an increasing pressure could be applied onto the gastrocnemius muscle (maximum 250 g). The pressure needed to elicit withdrawal was recorded. Means of 3 trials for each hind limb were calculated (interstimulus interval of >30 sec). Only animals with a significant TNF effect were included for further analysis.
Rats were injected with TNF into the gastrocnemius muscle at 2 pm. Eighteen hours later, rats were tested for pressure hyperalgesia pre- and post-administration of the test drug. Rats were tested for pressure hyperalgesia 30 to 60 minutes after drug administration.
as §3, §4

[4] = tested on: monosodium iodoacetate-induced tactile allodynia; assay: Monosodium iodoacetate-induced tactile allodynia (von Frey filaments); assay type: in vivo, rat (Wistar)
[5] = tested on: monosodium iodoacetate-induced mechanical hyperalgesia; assay: Monosodium iodoacetate-induced mechanical hyperalgesia (Randall-Selitto paw pressure); assay type: in vivo, rat (Wistar)

COC[C@@H](NC(C)=O)C(=O)NCc1ccccc1 [Lacosamide, (R)-2-acetamido-N-benzyl-3-methoxypropionamide]
Licking time % change (a) compared with vehicle control ([1]; Example 3, 20 mg/kg i.p. alone): −34% (a)
Licking time (seconds) mean ± SEM ([1]; Example 3, 20 mg/kg i.p. alone): 146.9 ± 23.8 NS (a) seconds
No. of flinches % change (a) compared with vehicle control ([1]; Example 3, 20 mg/kg i.p. alone): −33% (a)
No. of flinches mean ± SEM ([1]; Example 3, 20 mg/kg i.p. alone): 85.7 ± 14.3 NS (a)
decrease of the number of flinches as compared with vehicle controls ([1]; Example 3, 20 mg/kg i.p. alone): 33%
decrease of the time spent licking as compared with vehicle controls ([1]; Example 3, 20 mg/kg i.p. alone): 34%
Licking time % change (a) compared with vehicle control ([1]; Example 4, 10 mg/kg i.p. alone): −28% (a)
Licking time (seconds) mean ± SEM ([1]; Example 4, 10 mg/kg i.p. alone): 210.1 ± 22.7 (a) seconds
No. of flinches % change (a) compared with vehicle control ([1]; Example 4, 10 mg/kg i.p. alone): +22% (a)
No. of flinches mean ± SEM ([1]; Example 4, 10 mg/kg i.p. alone): 182.7 ± 25.9 NS (a)
decrease of the time spent licking as compared with vehicle controls ([1]; Example 4, 10 mg/kg i.p. alone): 28%
increase of the number of flinches as compared with vehicle controls ([1]; Example 4, 10 mg/kg i.p. alone): 22%
Licking time % change (a) compared with vehicle control ([1]; Example 4, 20 mg/kg i.p. alone): −56% (a)
Licking time (seconds) mean ± SEM ([1]; Example 4, 20 mg/kg i.p. alone): 128.2 ± 28.0 (a) seconds
No. of flinches % change (a) compared with vehicle control ([1]; Example 4, 20 mg/kg i.p. alone): −35% (a)
No. of flinches mean ± SEM ([1]; Example 4, 20 mg/kg i.p. alone): 97.2 ± 16.0 NS (a)
decrease of the number of flinches as compared with vehicle controls ([1]; Example 4, 20 mg/kg i.p. alone): 35%
decrease of the time spent licking as compared with vehicle controls ([1]; Example 4, 20 mg/kg i.p. alone): 56%
Licking time % change (a) compared with vehicle control ([1]; Example 5, 10 mg/kg i.p. alone): −30% (a)
Licking time (seconds) mean ± SEM ([1]; Example 5, 10 mg/kg i.p. alone): 185.2 ± 31.7 NS (a) seconds
No. of flinches % change (a) compared with vehicle control ([1]; Example 5, 10 mg/kg i.p. alone): +5% (a)
No. of flinches mean ± SEM ([1]; Example 5, 10 mg/kg i.p. alone): 158.2 ± 15.6 NS (a)
decrease of the time spent licking as compared with vehicle controls ([1]; Example 5, 10 mg/kg i.p. alone): 30%
effects on the number of flinches and the time spent licking ([1]; Example 5, 10 mg/kg i.p. alone): had no significant effects
Licking time % change (a) compared with vehicle control ([1]; Example 6, 10 mg/kg i.p. alone): −4% (a)
Licking time (seconds) mean ± SEM ([1]; Example 6, 10 mg/kg i.p. alone): 168.5 ± 23.9 NS (a) seconds
No. of flinches % change (a) compared with vehicle control ([1]; Example 6, 10 mg/kg i.p. alone): −31% (a)
No. of flinches mean ± SEM ([1]; Example 6, 10 mg/kg i.p. alone): 113.9 ± 23.2 NS (a)
decrease of the number of flinches as compared with vehicle controls ([1]; Example 6, 10 mg/kg i.p. alone): 31%
effect on the time spent licking as compared with vehicle controls ([1]; Example 6, 10 mg/kg i.p. alone): had no clear effects
Licking time % change (a) compared with vehicle control ([1]; Example 6, 20 mg/kg i.p. alone): −52% (a)
Licking time (seconds) mean ± SEM ([1]; Example 6, 20 mg/kg i.p. alone): 85.1 ± 19.1 (a) seconds
No. of flinches % change (a) compared with vehicle control ([1]; Example 6, 20 mg/kg i.p. alone): −48% (a)
No. of flinches mean ± SEM ([1]; Example 6, 20 mg/kg i.p. alone): 85.8 ± 14.4 (a)
decrease of the number of flinches as compared with vehicle controls ([1]; Example 6, 20 mg/kg i.p. alone): 48%
decrease of the time spent licking as compared with vehicle controls ([1]; Example 6, 20 mg/kg i.p. alone): 52%
Licking time % change (a) compared with vehicle control ([1]; Example 7, 10 mg/kg i.p. alone): −9% (a)
Licking time (seconds) mean ± SEM ([1]; Example 7, 10 mg/kg i.p. alone): 174.7 ± 20.4 NS (a) seconds
No. of flinches % change (a) compared with vehicle control ([1]; Example 7, 10 mg/kg i.p. alone): −13% (a)
No. of flinches mean ± SEM ([1]; Example 7, 10 mg/kg i.p. alone): 99.2 ± 16.6 NS (a)
effect on the time spent licking as compared with vehicle controls ([1]; Example 7, 10 mg/kg i.p. alone): had no clear effects
Licking time % change (a) compared with vehicle control ([1]; Example 7, 20 mg/kg i.p. alone): −59% (a)
Licking time (seconds) mean ± SEM ([1]; Example 7, 20 mg/kg i.p. alone): 78.9 ± 20.4 ***(a) seconds
No. of flinches % change (a) compared with vehicle control ([1]; Example 7, 20 mg/kg i.p. alone): −12% (a)
No. of flinches mean ± SEM ([1]; Example 7, 20 mg/kg i.p. alone): 100.3 ± 22.3 NS (a)
decrease of the time spent licking as compared with vehicle controls ([1]; Example 7, 20 mg/kg i.p. alone): 59%
effect on the number of flinches as compared with vehicle controls ([1]; Example 7, 10 and 20 mg/kg i.p. alone): did not clearly affect
MPE (maximal possible effect) on biceps muscle grip strength, compared with vehicle ([2]; 10 mg/kg i.p.): significantly different from vehicle
reversal of TNF-induced reduction of grip strength ([2]; 10 mg/kg i.p.): significant reversal; also recorded: reversed the effect of TNF on the muscle
MPE (maximal possible effect) on biceps muscle grip strength, compared with vehicle ([2]; 30 mg/kg i.p.): significantly different from vehicle
reversal of TNF-induced reduction of grip strength ([2]; 30 mg/kg i.p.): significant reversal
MPE (maximal possible effect) on muscle pressure hyperalgesia, compared with vehicle ([3]; 10 mg/kg i.p.): significantly different from vehicle
MPE (maximal possible effect) on muscle pressure hyperalgesia, compared with vehicle ([3]; 30 mg/kg i.p.): significantly different from vehicle
reversal of muscular mechanical hyperalgesia (withdrawal threshold to muscle pressure) ([3]; 30 mg/kg i.p.): full reversal
reversal of muscular mechanical hyperalgesia (withdrawal threshold to muscle pressure) ([3]; 30 mg/kg i.p., listed as lacosamide): complete reversal
muscle hyperalgesia induced by TNF injection in the paw pressure test, dose dependence ([3]; 3, 10 and 30 mg/kg i.p.): dose-dependently improved
tactile allodynia of iodoacetate-treated rats (von Frey) ([4]; day 3, 30 mg/kg p.o., 60 minutes before test): improved tactile allodynia
tactile allodynia of iodoacetate-treated rats (von Frey) ([4]; day 7, 30 mg/kg p.o., 60 minutes before test): improved tactile allodynia
tactile allodynia of iodoacetate-treated rats (von Frey) ([4]; day 14, 30 mg/kg p.o., 60 minutes before test): not on day 14
tactile allodynia of iodoacetate-treated rats (von Frey) ([4]; lower doses (3 and 10 mg/kg p.o.)): showed a trend for such improvement
paw pressure withdrawal threshold compared to iodoacetate/vehicle treated animals (mechanical hyperalgesia) ([5]; day 3, 3 mg/kg p.o.): increase in paw pressure withdrawal threshold
mechanical hyperalgesia (paw pressure withdrawal threshold) ([5]; day 7, 3 mg/kg p.o.): reduced mechanical hyperalgesia
mechanical hyperalgesia (paw pressure withdrawal threshold) ([5]; day 7, 10 mg/kg p.o.): reduced mechanical hyperalgesia
mechanical hyperalgesia (paw pressure withdrawal threshold) ([5]; day 7, 30 mg/kg p.o.): reduced mechanical hyperalgesia
mechanical hyperalgesia (paw pressure withdrawal threshold) ([5]; day 14, 10 mg/kg p.o.): did not show a statistically significant effect
mechanical hyperalgesia during the post-inflammatory period ([5]; p.o., overall conclusion): inhibited mechanical hyperalgesia

Reference: patent publication US20070048372A1, “Method for treating non-inflammatory osteoarthritic pain” (SRZ Properties, Inc., priority 2005, published 2007)
